The supplement of paper PMC4862054

Legend:
Conditions in all cases: incubation time: 72 h
CAL-148 [1] = assay: normalised viability (% of control), CellTiter-Blue; higher = more viable cells (about 100 = DMSO control)
Method: (§1)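 DSRT, CellTiter-Blue viability, 72 h incubation. Signal is normalised to DMSO and benzethonium chloride controls. Value is the normalised response at dose 9.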

CAL-51 [2] = assay: as above
Method: as §1

CAL-85-1 [3] = assay: as above
Method: as §1

DU-4475 [4] = assay: as above
Method: as §1

HDQ-P1 [5] = assay: as above
Method: as §1

MDA-MB-453 [6] = assay: as above
Method: as §1

BT-474 = assay: normalised response (% of control), CellTiter-Glo; higher = more viable cells (100 = DMSO, 0 = benzethonium chloride kill control)
Method: (§2)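 DSRT, 72 h incubation, CellTox Green / CellTiter-Glo readout. Signal is normalised to DMSO and benzethonium chloride controls. Value is the normalised response at the highest dose.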

BT-549 [7] = assay: as above
Method: as §2

CAL-120 = assay: as above
Method: as §2

CAL-148 [8] = assay: as above
Method: as §2

CAL-51 [9] = assay: as above
Method: as §2

CAL-85-1 [10] = assay: as above
Method: as §2

DU-4475 [11] = assay: as above
Method: as §2

HCC1937 = assay: as above
Method: as §2

HDQ-P1 [12] = assay: as above
Method: as §2

Hs578T = assay: as above
Method: as §2

MCF-10A = assay: as above
Method: as §2

MDA-MB-231 = assay: as above
Method: as §2

MDA-MB-453 [13] = assay: as above
Method: as §2

MFM-223 [14] = assay: as above
Method: as §2

SK-BR-3 = assay: as above
Method: as §2

BT-549 [15] = assay: normalised viability (% of control), CellTiter-Blue; higher = more viable cells (about 100 = DMSO control)
Procedure, shortened: (§3)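 Compound dissolved in 5 µl medium was pre-loaded into 384-well plates, and breast cancer cell lines in 20 µl suspension were seeded on top and incubated 72 h. After adding 2.5 µl CellTiter-Blue reagent for 2 h at 37 °C, fluorescence was read at 560/590 nm. Plates were normalised to vehicle (100) and a positive kill control (0), with Z'-factor quality control. Each value is normalised viability at a single listed concentration from the series.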

CAL-148 [16] = assay: as above; remark: listed apart in the source
Procedure, shortened: as §3

CAL-85-1 [17] = assay: as above; remark: listed apart in the source
Procedure, shortened: as §3

DU-4475 [18] = assay: as above; remark: listed apart in the source
Procedure, shortened: as §3

MDA-MB-453 [19] = assay: as above; remark: listed apart in the source
Procedure, shortened: as §3

MFM-223 [20] = assay: as above
Procedure, shortened: as §3

Structure (SMILES)	normalised viability (CAL-148 [1])	normalised viability (CAL-51 [2])	normalised viability (CAL-85-1 [3])	normalised viability (DU-4475 [4])	normalised viability (HDQ-P1 [5])	normalised viability (MDA-MB-453 [6])	normalised response (BT-474)	normalised response (BT-549 [7])	normalised response (CAL-120)	normalised response (CAL-148 [8])	normalised response (CAL-51 [9])	normalised response (CAL-85-1 [10])	normalised response (DU-4475 [11])	normalised response (HCC1937)	normalised response (HDQ-P1 [12])	normalised response (Hs578T)	normalised response (MCF-10A)	normalised response (MDA-MB-231)	normalised response (MDA-MB-453 [13])	normalised response (MFM-223 [14])	normalised response (SK-BR-3)	normalised viability (BT-549 [15]; 10 nM)	normalised viability (BT-549 [15]; 1000 nM)	normalised viability (BT-549 [15]; 10000 nM)	normalised viability (CAL-148 [16]; 3 nM)	normalised viability (CAL-148 [16]; 30 nM)	normalised viability (CAL-148 [16]; 100 nM)	normalised viability (CAL-85-1 [17]; 3 nM)	normalised viability (CAL-85-1 [17]; 30 nM)	normalised viability (CAL-85-1 [17]; 100 nM)	normalised viability (DU-4475 [18]; 3 nM)	normalised viability (DU-4475 [18]; 30 nM)	normalised viability (DU-4475 [18]; 100 nM)	normalised viability (MDA-MB-453 [19]; 3 nM)	normalised viability (MDA-MB-453 [19]; 30 nM)	normalised viability (MDA-MB-453 [19]; 100 nM)	normalised viability (MFM-223 [20]; 10 nM)	normalised viability (MFM-223 [20]; 1000 nM)	normalised viability (MFM-223 [20]; 10000 nM)
COc1cccc2c1C(=O)c1c(O)c3c(c(O)c1C2=O)C[C@@](O)(C(=O)CO)C[C@@H]3O[C@H]1C[C@H](N)[C@H](O)[C@H](C)O1 [Doxorubicin] (1000 nM)	-1.37%	3.87%	7.31%	-2.19%	13.7%	3.55%	22.1%	14.9%	43.4%	1.22%	23.7%	17.7%	0.14%	51.4%	46.7%	45.6%	44%	29%	20.7%	72.6%	8.83%	–	–	–	–	–	–	–	–	–	–	–	–	–	–	–	–	–	–
C[C@]1(c2nc3c(C(N)=O)cccc3[nH]2)CCCN1 [Veliparib] (10000 nM)	94.9%	94.7%	78.9%	81%	93.2%	94.9%	82.1%	95.7%	93.1%	99.2%	96.1%	104%	96.8%	93.6%	102%	98.9%	97.3%	93.3%	121%	97.3%	90.9%	–	–	–	–	–	–	–	–	–	–	–	–	–	–	–	–	–	–
S=c1[nH]cnc2nc[nH]c12 [Mercaptopurine] (10000 nM)	86.6%	75.1%	80.3%	102%	90.3%	100%	31.6%	94.8%	27.3%	85.5%	80.5%	79.3%	56.5%	31.8%	35.9%	47.3%	95.3%	40.7%	102%	85.5%	85.8%	–	–	–	–	–	–	–	–	–	–	–	–	–	–	–	–	–	–
CN1CCC(COc2cnc(-c3cccc(Cn4nc(-c5cccc(C#N)c5)ccc4=O)c3)nc2)CC1 (1000 nM)	–	–	–	–	–	–	93.3%	91.9%	96.1%	94.5%	110%	99.8%	101%	84%	99.6%	95.2%	89.3%	104%	84%	84.9%	81%	–	–	–	–	–	–	–	–	–	–	–	–	–	–	–	–	–	–
CN1CC[C@H](c2c(O)cc(O)c3c(=O)cc(-c4ccccc4Cl)oc23)[C@H](O)C1 [Alvocidib]	–	–	–	–	–	–	–	–	–	–	–	–	–	–	–	–	–	–	–	–	–	92%	9%	7.78%	86%	89.6%	70.8%	82.7%	79.9%	76.6%	90.7%	79.2%	78.6%	104%	91.4%	73%	87.3%	8.79%	8.79%
CN(C)C/C=C/C(=O)Nc1cc2c(Nc3ccc(F)c(Cl)c3)ncnc2cc1O[C@H]1CCOC1 [Afatinib] (1000 nM)	–	–	–	–	–	–	80.2%	89.1%	93.5%	78.6%	96.4%	61.7%	100%	89.8%	64.3%	94.5%	35.1%	83.4%	63.3%	93%	24.8%	–	–	–	–	–	–	–	–	–	–	–	–	–	–	–	–	–	–
Nc1ccn([C@@H]2O[C@H](CO)[C@@H](O)[C@@H]2O)c(=O)n1 [Cytarabine]	–	–	–	–	–	–	–	–	–	–	–	–	–	–	–	–	–	–	–	–	–	87.2%	65.7%	62.9%	95.9%	68.9%	47.9%	106%	97.4%	104%	121%	87.8%	93.9%	101%	111%	94.9%	107%	95.6%	97.3%
N#CC[C@H](C1CCCC1)n1cc(-c2ncnc3[nH]ccc23)cn1 [Ruxolitinib]	–	–	–	–	–	–	–	–	–	–	–	–	–	–	–	–	–	–	–	–	–	86.3%	90.9%	73.4%	92%	82.4%	94.1%	114%	90.4%	110%	103%	106%	121%	86.8%	89.2%	93.9%	101%	98.6%	75.3%
